Results on three compounds are retold here after US9296692B2, “Use of indolyl and indolinyl hydroxamates for treating heart failure of neuronal injury” (TAIPEI MEDICAL UNIVERSITY, priority 2011, dated 2016).

The test system of one assay is heart failure (HF) rats. The assay is described as follows: Echocardiography in isoproterenol-induced heart failure (HF) rats. It is filed as in vivo, Wistar rats.
A further assay relates to MCAO rats. Put plainly: Infarction volume (TTC staining) in middle cerebral artery occlusion (MCAO) rats. The assay is classed as in vivo. Conditions: 30 mg/Kg intravenous, N=5 per group, 3 days. The protocol:
(§1) In this example, effects of compounds of this invention were varified using ischematic stroke animal model.
(§2) The bilateral common carotid arteries were isolated through a neck incision and occluded with aneurysm clips. […] After 60 minutes, rats were re-anesthetized, the carotid clips were removed, and the neck incision was closed. The rats were returned to their home cage after fully recovered from anesthesia. The sham surgery is similar to the MCAO surgery, which included the step of opening the dura, yet without the steps of isolating, clipping, or coagulating neither the MCA nor carotid vessel.
Compound 1 was dissolved in 5% ethanol, 35% polyethylene glycol and 60% normal saline at a concentration of 15 mg/ml. […]
Medicaments prepared in accordance with steps described in Example 4.2 were given to the 3 groups of MCAO rats of Example 4.1 (N=5, for each group), and the infraction area of these animals were then stained and estimated by similar steps described in Examples 3.4 and 3.5, and results are illustrated in FIGS. 7A and 7B. […] In another example, after induction of MACO, rats were infused with compound 1 at 30 min, 2 hrs, 4 hrs, and 24 hrs, respectively; and the infarction volume was calculated 3 days after MCAO.

Assay [1] relates to cAMP response element-binding protein (CREB). The assay is described as follows: Western blot analysis of CREB in brain of MCAO rats. It is filed as in vivo. Conditions: 30 mg/Kg intravenous, RA, LA, RP, LP brain areas. The protocol:
as §1, §2
Compound 1 was dissolved in 5% ethanol, 35% polyethylene glycol and 60% normal saline at a concentration of 15 mg/ml. All test animals received intravenous injection of either compound 1 (30 mg/Kg), valproic acid (VPA, 30 mg/kg) or vehicle (5% ethanol, 35% polyethylene glycol and 60% normal saline) at 0-7 days after MCAO.
Collected protein samples were mixed with Laemli sample buffer. […] The Immunoblottingquantification was fulfilled via Quantity OneTMsoftware (Bio-Rad).
Level of CREB phosphorylaiton was measured by western blot ananlysis in accordance with steps described in Example 4.3. […]
Background: A western blot detects proteins with antibodies after separation by electrophoresis.

A further assay relates to TBI rats. Put plainly: Skilled forelimb reaching task in TBI rats. It is filed as in vivo, Sprague-Dawley rats. The settings on record: 30 mg/Kg intravenous at 0-7 days after TBI. The source says:
Adult male Sprague-Dawley rats (each weighted about 250-300 g, and were purchased from BioLASCO Taiwan Co., Ltd) were used in this study. The rats were randomly allocated into three groups: (i) TBI+test Compound (e.g., Compound 1 or valproic acid (VPA)), (ii) TBI+VEH (i.e., vehicle-treated TBI rats), and (iii) Sham (sham-operated control). They were housed in an animal room under temperature control (24-25) and 12:12 light-dark cycle. Standard laboratory rat chow and tap water were available ad libitum. All animal experiments were carried out in accordance with the guidelines established by the Institutional Animal Care and Utilization Committee of the Taipei Medical University (Taipei, Taiwan, R.O.C.).
Surgical anesthesia was induced by ketamine (90 mg/kg body weight) and xylazine (10 mg/kg body weight), which were administered intraperitoneally (ip). Following anesthesia, the animals were secured in a stereotaxic frame and ventilated mechanically. A cortical contusion was produced on the exposed cortex using a controlled impactor device TBI-0200 TBI Model system (Precision Systems and Instrumentation). […]
All test animals were trained to criterion on the skilled forelimb reaching task. […] During the initial days of training, limb preference was determined and placement of pellets was adjusted to favor the use of the preferred forelimb. […]

Setting [2] is: HF rats, after treatment, 100 mg/kg oral gavage once daily for 7 days, mean±S.E.M.
[3] abbreviates: HF rats, before treatment (baseline of the group), n = 7, mean±S.E.M.

Several values for one entry are separate records, joined by “and”; a condition that tells them apart may be missing. Identical values can stand only once.

Method for heart failure (HF) rats: Adult male Wistar rats (each weighted about 240-270 g, and were purchased from BioLASCO Taiwan Co., Ltd) were used in this study. […] Heart failure (HF) rats received one subcutaneous injection of isoproterenol at a dosage of 100 mg/Kg. They were housed in an animal room under temperature control (24-25° C.) and 12:12 light-dark cycle. Standard laboratory rat chow and tap water were available ad libitum. […] A midline thoracotomy was then performed, and the heart was removed, weighed, and dissected from each rat for further analysis. Echocardiograms were performed before the animals were euthanized, using HP Sonos 5500 system with a 15-6L probe (6 to 15 MHz, SONOS 5500, Agilent Technologies, Palo Alto, Calif.) or Vivid I ultrasound cardiovascular system (GE Healthcare, Haifa, Israel). LV end-diastolic diameter (LVEDD), LV end-systolic diameter (LVESD), and wall thickness were measured from M-mode tracings. The LV fractional shortening percentage was calculated as ([LVEDD-LVESD]/LVEDD)×100. The LV ejection fraction was calculated by Techholz's formula. All quantitative data are expressed as the mean±S.E.M, and un-paired T test was used to compare the differences between groups.

On to `O=C(/C=C/c1ccc2c(ccn2S(=O)(=O)c2ccccc2)c1)NO` [compound 1, 3-(1-benzensulfonyl-1H-indol-5-yl)-N-hydroxy-acrylamide], for which, in the assay with heart failure (HF) rats (setting [2]), the Fraction shortening worked out at 47 ± 3 %, the IVSd is given as 1.3 ± 0.1 mm, the LVEDd is 4.6 ± 0.2 mm and the LVESd worked out at 2.4 ± 0.2 mm. Also, the Ejection fraction in the assay with heart failure (HF) rats (HF rats, after treatment, 100 mg/kg oral gavage once daily for 7 days, mean±S.E.M, 100 mg/kg) is 81% and 81 ± 3 %. Besides, in the assay with heart failure (HF) rats (setting [3]), the Ejection fraction was 68 ± 2%, the Fraction shortening is 38 ± 3%, the IVSd is on record as 1.4 ± 0.1 mm and the LVEDd is 5.4 ± 0.4 mm. Also, in the assay on heart failure (HF) rats (setting [3]), the LVESd was determined as 3.4 ± 0.3 mm.
Regarding `NNc1nncc2ccccc12` [hydralazine, reference compound], the Ejection fraction is reported as 76±10% with heart failure (HF) rats (HF rats (isoproterenol 150 mg/kg s.c.), after 10 mg/kg i.p. once daily for 7 days, data not shown) and 59±4% with heart failure (HF) rats (HF rats (isoproterenol 150 mg/kg s.c.), starting value that the ejection fraction increased from, data not shown).
On to `CCCC(CCC)C(=O)O` [VPA, valproic acid], for which, in the assay on MCAO rats, the “Infarction volume, FIG. 7A” value is recorded as “significant reduction of infarction volume”. The “Up-regulation of CREB (p-CREB and t-CREB), FIG. 8” value in assay [1] is “up-regulation of cAMP response element-binding protein (CREB)”. The “Behaviour function deficits (skilled forelimb reaching task), FIG. 6” value in the assay on TBI rats is on record as “significantly improve the behaviour function deficits caused by TBI”.
